Results on 1 compound are retold here after paper PMC9462760, “A potent and selective inhibitor for the modulation of MAGL activity in the neurovasculature” (PLoS ONE, 2022).

Experiment [1] deals with T1, Monoacylglycerol lipase (MAGL) (Homo sapiens, UniProt Q99685).
T1 construct: gene MGLL
T1 sequence (Q99685 1-303): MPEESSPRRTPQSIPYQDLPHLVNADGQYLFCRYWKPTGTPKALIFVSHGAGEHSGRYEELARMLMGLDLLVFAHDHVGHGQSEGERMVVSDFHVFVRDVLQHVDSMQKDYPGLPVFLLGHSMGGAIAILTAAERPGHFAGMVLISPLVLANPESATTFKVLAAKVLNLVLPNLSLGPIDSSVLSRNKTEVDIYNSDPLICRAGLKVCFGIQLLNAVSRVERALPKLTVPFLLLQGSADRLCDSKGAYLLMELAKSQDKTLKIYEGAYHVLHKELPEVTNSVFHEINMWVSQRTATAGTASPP
The experiment in a line: competitive ABPP in human brain lysate at […] ([…] decrease of MAGL signal). Type of experiment: cell-based.

Experiment [2] deals with T2, Monoacylglycerol lipase (MAGL) (Mus musculus, UniProt O35678).
T2 construct: gene Mgll
T2 sequence (O35678 1-303): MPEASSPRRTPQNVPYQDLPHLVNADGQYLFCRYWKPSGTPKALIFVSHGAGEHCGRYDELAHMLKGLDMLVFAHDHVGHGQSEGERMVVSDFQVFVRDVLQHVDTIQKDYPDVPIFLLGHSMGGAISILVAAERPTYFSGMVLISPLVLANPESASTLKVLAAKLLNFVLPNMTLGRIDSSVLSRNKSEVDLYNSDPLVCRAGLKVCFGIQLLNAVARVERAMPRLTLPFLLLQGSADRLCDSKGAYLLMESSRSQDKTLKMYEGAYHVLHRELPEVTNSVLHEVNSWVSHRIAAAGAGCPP
In words: competitive ABPP in mouse brain lysate at […] ([…] decrease of MAGL signal). It is filed as cell-based.

The inhibition is how much of the control response was suppressed. Read a high inhibition as strong suppression.

On to `O=C(Oc1ccc([N+](=O)[O-])cc1)N1CCC(C(O)(c2ccc3c(c2)OCO3)c2ccc3c(c2)OCO3)CC1` [JZL 184], for which the inhibition at 10 µM in experiment [1] amounted to 83%; in experiment [2] it was 78%.
